The nature of this data set: gradient 5% acetonitrile 3 min, to 50% in 2 min, to 85% in 15 min, held 3 min, 100 µL/min. The following applies: column: Zorbax Extend-C18 2.1 x 50 mm; eluents: water / acetonitrile, 0.1% formic acid. A digest of the protocol:
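Over 3 months, pure standards in mixtures of ~100 molecules were run by HPLC coupled to a quadrupole time-of-flight mass spectrometer in positive and negative ionization mode. The column was a Zorbax Extend-C18 (2.1 × 50 mm, 1.8 μm) at 100 μL/min, eluted with water and acetonitrile each holding 0.1% formic acid, with 40 μL dead and 900 μL dwell volumes. Retention time was determined from adduct peaks chosen by software and checked manually.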
Turning to `CCc1nn2c(CNC(=O)c3cccnc3)c(-c3ccccc3)nc2s1`, the RP-LC retention time was determined as 700 s. `CCc1c(C(=O)O)nnn1-c1ccc2c(c1)OCCO2` returned an RP-LC retention time of 702 s. `CCCCN1CCN(C(=O)C2c3ccccc3CCN2C(=O)CC)CC1` (centres undefined) yielded an RP-LC retention time of 626 s. `Cn1cc(C(=O)N2CC(c3noc(C4CCCN4CC4CC4)n3)C2)cn1` (centres undefined): the RP-LC retention time was 549 s. The molecule `Cc1c(F)cccc1NC(=O)N1CC(F)(F)C[C@H]1CN1CCCC1` gave an RP-LC retention time of 676 s. As for `CCn1cc(-c2nc(CC(=O)NCc3cccc(Cl)c3)cs2)c2cccnc21`, the figure is 903 s; as for `CC(C)OCCCNC(=O)Cn1cccc1-c1nc(-c2ccc(Cl)cc2)cs1`, 1100 s. As for `Cn1cnc2c(C(=O)N3CCN(c4ccccn4)CC3)nn(-c3ccccc3)c2c1=O`, the figure is 599 s. `O=C(CCc1ccccc1)NCC(=O)Nc1nc2ccccc2[nH]1` showed an RP-LC retention time of 640 s.

Regarding `Cc1nc(-c2csc(S(=O)(=O)N3CCC(C(=O)NCC4CCCO4)CC3)c2)no1` (centres undefined), the RP-LC retention time was found to be 725 s. For `CN1C(=O)Cc2cc(S(=O)(=O)NCc3ccc4c(c3)CCN4C(=O)c3ccc(Cl)cc3)ccc21`, the RP-LC retention time came to 867 s.

Turning to `CCOc1ccc(-c2nc(COc3cc(C(F)(F)F)c4c(C)nn(C)c4n3)c(C)o2)cc1OC`, the RP-LC retention time came out at 1330 s.

`Cc1ccc(NC(=O)N2CCCC(Cn3cnc4cccnc43)C2)c(C)c1` (centres undefined) showed an RP-LC retention time of 680 s.

For `COc1ccc(NC(=O)Cn2c(=O)n(-c3ccc(F)cc3)c3ncccc32)cc1OC`, the RP-LC retention time came to 753 s. Regarding `COc1ccc2c(C)c(CCC(=O)N[C@@H](C(=O)O)C(C)C)c(=O)oc2c1C`, the RP-LC retention time is 746 s.

The molecule `COc1ccc(-c2noc(Cc3nnc(-c4ccc(OC)cc4)o3)n2)cc1` showed an RP-LC retention time of 949 s. With `CCCn1c(=O)c(C)nc2cc(-c3noc(-c4ccc(F)c(F)c4)n3)ccc21`, the RP-LC retention time was found to be 1230 s. The molecule `COc1ccc(C2CC(=O)N(c3ccc4c(c3)OCCO4)C(=O)C2)cc1OC` returned an RP-LC retention time of 789 s. The molecule `COc1cccc(N2CC(c3nc4ccccc4n3CC(=O)N3CCCC3)CC2=O)c1` (centres undefined) registered an RP-LC retention time of 619 s. `Cc1ccccc1Cc1nc(-c2cccc(-c3ccnn3C)c2)no1` showed an RP-LC retention time of 1110 s. As for `COCCn1nc2n(c1=O)CCN(C(=O)c1cc(C3CC3)[nH]n1)CC2`, the figure is 596 s; as for `COc1cc2c(cc1CNC(=O)C(=O)c1c[nH]c3ccccc13)OCCCO2`, 1320 s; as for `COCCNC(=O)C1COC2(CCCCC2)N1C(=O)c1cccc(F)c1` (centres undefined), 719 s. For `O=c1n(Cc2ccccc2Cl)nc2ccc(S(=O)(=O)N3CCOCC3)cn12`, the RP-LC retention time was found to be 824 s. With `O=C(NCCC1=CCCCC1)c1nc(Nc2ccccc2)c2ccccc2n1`, the RP-LC retention time turned out to be 960 s. In turn, `Cc1c(C(=O)N2CCN(C(=O)c3ccco3)CC2)[nH]c2ccccc12` showed an RP-LC retention time of 729 s.

In turn, `CCOc1ccccc1NC(=O)N1CCC2(CC1)NC(=O)c1ccc(Cl)cc1N2C` yielded an RP-LC retention time of 858 s.

Turning to `COc1ccc(OCc2nc(CCN(C)C(=O)c3cc(OC)cc(OC)c3)no2)cc1`, the RP-LC retention time was found to be 810 s. Consider `CCCOc1nn(CCC)cc1C(=O)Nc1nccs1`, for which the RP-LC retention time came to 865 s. `C[C@@H]1CN(C(=O)NCc2ccco2)C[C@H]1c1nc(-c2ccncc2)no1` returned an RP-LC retention time of 676 s.

Molecule `COCCn1cc(CC(=O)NC2CCCCCC2)c2cccnc21` displayed an RP-LC retention time of 746 s. `O=C(Cc1c(F)cccc1Cl)NC1CCN(c2cc(-c3ccccc3)[nH]n2)C1` (centres undefined) came in with an RP-LC retention time of 638 s.

`CN(C)CCNc1nc(-c2ccc(C(C)(C)C)cc2)nc2ccccc12`: the RP-LC retention time came out at 590 s. In turn, `O=C(NCC1CCN(C(=O)COc2ccccc2)CC1)c1ccc(F)c(F)c1` registered an RP-LC retention time of 758 s. With `Cc1ccnc(NC(=O)C2CCCN(c3cc(=O)n(C)c(=O)n3C)C2)c1` (centres undefined), the RP-LC retention time worked out at 570 s. `CCC1CCCCN1C(=O)CSc1nc2c3cc(OC)ccc3n(C)c2c(=O)n1CC` (centres undefined): the RP-LC retention time worked out at 1070 s. As for `CNC(=O)C1CN(S(=O)(=O)c2ccc(C)cc2)CC12CCCC2` (centres undefined), the figure is 596 s; as for `O=S(=O)(NC1CCN(Cc2ccccc2)CC1)c1cc(-c2cc(C(F)(F)F)on2)cs1`, 776 s; as for `O=C(Nc1nc2c(s1)CN(S(=O)(=O)c1ccccc1)CC2)c1ccoc1`, 823 s. With `CC(C)OCCCNC(=O)COc1ccccc1-c1nnc(-c2ccccc2)o1`, the RP-LC retention time is 631 s. As for `CC(C)NC(=O)C1CCN(S(=O)(=O)c2cc(-c3noc(C4CCC4)n3)cs2)CC1`, the figure is 913 s; as for `CC(C)c1ccc(S(=O)(=O)N2CCC3(CC2)NCCN=C3NCc2ccccc2)cc1`, 791 s. Take `COc1cc2nc(C(=O)N3CCCCC3)cc(Nc3ccc(Br)cc3)c2cc1OC`: the RP-LC retention time amounted to 743 s. The molecule `Cc1ccc(CNC(=O)C2(C)CN(S(C)(=O)=O)CC(=O)N2c2cccc(F)c2)cc1` (centres undefined) yielded an RP-LC retention time of 818 s. `Cc1ccc(NC(=O)C2CCCN(C(=O)C3Sc4ccccc4NC3=O)C2)cc1C` (centres undefined) gave an RP-LC retention time of 862 s. In turn, `Cc1nc(C)c(C(=O)Nc2nc(-c3ccccc3)cs2)s1` gave an RP-LC retention time of 886 s. Regarding `CC1(C)CC(O)CC(C)(C)N1[O-]`, the RP-LC retention time worked out at 578 s. With `COc1ccc(Cl)cc1S(=O)(=O)N1CCCC(C(=O)Nc2ccc(C)c(C)c2)C1` (centres undefined), the RP-LC retention time amounted to 1080 s. `Cc1oc(-c2[nH]ncc2C(=O)N2CCCC2)cc1S(=O)(=O)NCCCOC(C)C` gave an RP-LC retention time of 655 s. Consider `O=c1c2cc(-c3ccc4c(c3)OCO4)nn2ccn1Cc1nc(-c2cccc(Cl)c2)no1`, for which the RP-LC retention time amounted to 1080 s.

With `Cc1cc2c(=O)n(CC(=O)Nc3cc(F)ccc3F)ccc2s1`, the RP-LC retention time is 817 s.

Consider `CN(Cc1ccsc1)C(=O)Nc1ccc(F)cc1`, for which the RP-LC retention time was found to be 839 s.

With `CCCCS(=O)(=O)c1cc2c(cc1NC(=O)c1ccc(Br)cc1)n(C)c(=O)n2C`, the RP-LC retention time came to 1020 s. As for `NC[C@@](O)(c1ccc(Cl)cc1)c1ccc(-c2cn[nH]c2)cc1`, the figure is 678 s; as for `O=C(CC1CCN(C(=O)c2ccc3oc(C4CC4)nc3c2)CC1)NCc1ccco1`, 693 s; as for `Cc1cccc(NC(=O)CN2C(=O)C3CCCCN3c3ccc(S(=O)(=O)N4CCCCC4)cc32)c1` (centres undefined), 1080 s. Molecule `COc1ccccc1NC(=O)Cc1csc2nc(-c3ccccc3)cn12` gave an RP-LC retention time of 786 s.

On to `O=c1ccc(-c2ccc(Cl)cc2)nn1CCCNS(=O)(=O)Cc1ccccc1`, for which the RP-LC retention time worked out at 579 s. As for `O=C(Nc1cccc(-c2nnc3n2CCCC3)c1)c1cc(C2CC2)[nH]n1`, the RP-LC retention time worked out at 590 s.
